Data taken from PubChem BioAssay AID1963968 (Molecular Pharmacology Branch, DTP, NCI, 2024).

System: 945468-187-T-J3-PDC spheroids with HUVEC/MSC, viability
Assay: Anticancer human tumor 945468-187-T-J3-PDC patient-derived rectal carcinoma cell line growth inhibition [PI3K]
Details: for IC50: curve of first compound; for viability, T/C: stronger effect = lower value
In short: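 High-throughput combination screen: PI3K inhibitors crossed with targeted small molecules on complex spheroids of tumor cells, HUVEC and MSCs at 37 degrees C, 5% CO2. Top concentration was at or near clinical Cmax (otherwise 10 microM), with half-log decrements.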

[1] = second compound 0.0316 µM, first compound 0.0316 µM
[2] = second compound 0.0316 µM, first compound 0.1 µM
[3] = second compound 0.0316 µM, first compound 0.316 µM
[4] = second compound 0.0316 µM, first compound 1 µM
[5] = second compound 0.0316 µM, first compound 3.16 µM
[6] = second compound 0.0316 µM, first compound 10 µM
[7] = second compound 0.1 µM, first compound 0.0316 µM
[8] = second compound 0.1 µM, first compound 0.1 µM
[9] = second compound 0.1 µM, first compound 0.316 µM
[10] = second compound 0.1 µM, first compound 1 µM
[11] = second compound 0.1 µM, first compound 3.16 µM
[12] = second compound 0.1 µM, first compound 10 µM
[13] = second compound 0.316 µM, first compound 0.0316 µM
[14] = second compound 0.316 µM, first compound 0.1 µM
[15] = second compound 0.316 µM, first compound 0.316 µM
[16] = second compound 0.316 µM, first compound 1 µM
[17] = second compound 0.316 µM, first compound 3.16 µM
[18] = second compound 0.316 µM, first compound 10 µM
[19] = second compound 1 µM, first compound 0.0316 µM
[20] = second compound 1 µM, first compound 0.1 µM
[21] = second compound 1 µM, first compound 0.316 µM
[22] = second compound 1 µM, first compound 1 µM
[23] = second compound 1 µM, first compound 3.16 µM
[24] = second compound 1 µM, first compound 10 µM
[25] = second compound 3.16 µM, first compound 0.0316 µM
[26] = second compound 3.16 µM, first compound 0.1 µM
[27] = second compound 3.16 µM, first compound 0.316 µM
[28] = second compound 3.16 µM, first compound 1 µM
[29] = second compound 3.16 µM, first compound 3.16 µM
[30] = second compound 3.16 µM, first compound 10 µM
[31] = second compound 10 µM, first compound 0.0316 µM
[32] = second compound 10 µM, first compound 0.1 µM
[33] = second compound 10 µM, first compound 0.316 µM
[34] = second compound 10 µM, first compound 1 µM
[35] = second compound 10 µM, first compound 3.16 µM
[36] = second compound 10 µM, first compound 10 µM
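Further: spheroids exposed to agents for 7 days before viability read.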
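Wherever viability, T/C is given: 100% = DMSO vehicle control viability.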

Which results are given for `CC1(C)CCC(CN2CCN(c3ccc(C(=O)NS(=O)(=O)c4ccc(NCC5CCOCC5)c([N+](=O)[O-])c4)c(Oc4cnc5[nH]ccc5c4)c3)CC2)=C(c2ccc(Cl)cc2)C1` + Cc1nc(NC(=O)N2CCCC2C(N)=O)sc1-c1ccnc(C(C)(C)C(F)(F)F)c1?
IC50 (second compound 0.0316 µM): 6.84 µM; IC50 (second compound 0.1 µM): 6.42 µM; IC50 (second compound 0.316 µM): 6.58 µM; IC50 (second compound 1 µM): 6.68 µM; IC50 (second compound 3.16 µM): 6.32 µM; IC50 (second compound 10 µM): 4.27 µM; viability, T/C [1]: 95.4%; viability, T/C [2]: 109%; viability, T/C [3]: 97.5%; viability, T/C [4]: 120%; viability, T/C [5]: 125%; viability, T/C [6]: 20.8%; viability, T/C [7]: 100%; viability, T/C [8]: 108%; viability, T/C [9]: 101%; viability, T/C [10]: 117%; viability, T/C [11]: 123%; viability, T/C [12]: 12.5%; viability, T/C [13]: 107%; viability, T/C [14]: 112%; viability, T/C [15]: 113%; viability, T/C [16]: 120%; viability, T/C [17]: 130%; viability, T/C [18]: 12.2%; viability, T/C [19]: 117%; viability, T/C [20]: 115%; viability, T/C [21]: 106%; viability, T/C [22]: 113%; viability, T/C [23]: 114%; viability, T/C [24]: 15.8%; viability, T/C [25]: 116%; viability, T/C [26]: 101%; viability, T/C [27]: 101%; viability, T/C [28]: 122%; viability, T/C [29]: 104%; viability, T/C [30]: 14.5%; viability, T/C [31]: 70.7%; viability, T/C [32]: 59%; viability, T/C [33]: 63.8%; viability, T/C [34]: 68.4%; viability, T/C [35]: 63.3%; viability, T/C [36]: 12.1%

Which results are given for `CCCS(=O)(=O)Nc1ccc(F)c(C(=O)c2c[nH]c3ncc(-c4ccc(Cl)cc4)cc23)c1F` + Cc1nc(NC(=O)N2CCCC2C(N)=O)sc1-c1ccnc(C(C)(C)C(F)(F)F)c1?
IC50 (second compound 0.0316 µM): 6.38 µM; IC50 (second compound 0.1 µM): 7.05 µM; IC50 (second compound 0.316 µM): 8.19 µM; IC50 (second compound 1 µM): > 10 µM; IC50 (second compound 3.16 µM): 7.2 µM; IC50 (second compound 10 µM): 1.84 µM; viability, T/C [1]: 99.8%; viability, T/C [2]: 109%; viability, T/C [3]: 87.1%; viability, T/C [4]: 103%; viability, T/C [5]: 107%; viability, T/C [6]: 17.1%; viability, T/C [7]: 111%; viability, T/C [8]: 98%; viability, T/C [9]: 93.3%; viability, T/C [10]: 105%; viability, T/C [11]: 107%; viability, T/C [12]: 26.9%; viability, T/C [13]: 109%; viability, T/C [14]: 101%; viability, T/C [15]: 100%; viability, T/C [16]: 119%; viability, T/C [17]: 108%; viability, T/C [18]: 37.9%; viability, T/C [19]: 119%; viability, T/C [20]: 116%; viability, T/C [21]: 112%; viability, T/C [22]: 114%; viability, T/C [23]: 104%; viability, T/C [24]: 56.9%; viability, T/C [25]: 106%; viability, T/C [26]: 110%; viability, T/C [27]: 101%; viability, T/C [28]: 99.7%; viability, T/C [29]: 96.3%; viability, T/C [30]: 31.2%; viability, T/C [31]: 67.1%; viability, T/C [32]: 52.8%; viability, T/C [33]: 53.3%; viability, T/C [34]: 64.9%; viability, T/C [35]: 41.5%; viability, T/C [36]: 5.18%

What does the source list for `C[C@@H](NC(=O)c1ncnc(N)c1Cl)c1ncc(C(=O)Nc2cc(C(F)(F)F)c(Cl)cn2)s1` + Cc1nc(NC(=O)N2CCCC2C(N)=O)sc1-c1ccnc(C(C)(C)C(F)(F)F)c1?
IC50 (second compound 0.0316 µM): > 10 µM; IC50 (second compound 0.1 µM): > 10 µM; IC50 (second compound 0.316 µM): > 10 µM; IC50 (second compound 1 µM): > 10 µM; IC50 (second compound 3.16 µM): > 10 µM; IC50 (second compound 10 µM): > 10 µM; viability, T/C [1]: 107%; viability, T/C [2]: 107%; viability, T/C [3]: 91.6%; viability, T/C [4]: 111%; viability, T/C [5]: 106%; viability, T/C [6]: 105%; viability, T/C [7]: 101%; viability, T/C [8]: 97.2%; viability, T/C [9]: 94.8%; viability, T/C [10]: 110%; viability, T/C [11]: 111%; viability, T/C [12]: 107%; viability, T/C [13]: 95.8%; viability, T/C [14]: 98.6%; viability, T/C [15]: 95.4%; viability, T/C [16]: 120%; viability, T/C [17]: 112%; viability, T/C [18]: 100%; viability, T/C [19]: 108%; viability, T/C [20]: 115%; viability, T/C [21]: 102%; viability, T/C [22]: 114%; viability, T/C [23]: 97.6%; viability, T/C [24]: 107%; viability, T/C [25]: 108%; viability, T/C [26]: 98%; viability, T/C [27]: 101%; viability, T/C [28]: 96.4%; viability, T/C [29]: 99%; viability, T/C [30]: 103%; viability, T/C [31]: 67.1%; viability, T/C [32]: 51.1%; viability, T/C [33]: 44.1%; viability, T/C [34]: 56%; viability, T/C [35]: 61.9%; viability, T/C [36]: 51.3%
